# Source: article PMC9938908, “Unraveling topoisomerase IA gate dynamics in presence of PPEF and its preclinical evaluation against multidrug-resistant pathogens” (Communications Biology, 2023)
# How the values were obtained:
# Type in all cases: biochemical
# [1] = target: T1, E. coli topoisomerase IA (EcTopoIA) (Escherichia coli, UniProt P06612); experiment: DNA relaxation assay with pHOT-1 plasmid, agarose gel
# T1 construct: gene topA; expressed in pET28a(+), purified
# [2] = target: T2, A. baumannii topoisomerase IA (AbTopoIA) (Acinetobacter baumannii, UniProt A0ABX6CBM5); experiment: as above
# T2 construct: gene topA; N-terminal His-tag, pET28a(+), 2637 bp, 98 kDa
# T2 sequence (A0ABX6CBM5 1-878): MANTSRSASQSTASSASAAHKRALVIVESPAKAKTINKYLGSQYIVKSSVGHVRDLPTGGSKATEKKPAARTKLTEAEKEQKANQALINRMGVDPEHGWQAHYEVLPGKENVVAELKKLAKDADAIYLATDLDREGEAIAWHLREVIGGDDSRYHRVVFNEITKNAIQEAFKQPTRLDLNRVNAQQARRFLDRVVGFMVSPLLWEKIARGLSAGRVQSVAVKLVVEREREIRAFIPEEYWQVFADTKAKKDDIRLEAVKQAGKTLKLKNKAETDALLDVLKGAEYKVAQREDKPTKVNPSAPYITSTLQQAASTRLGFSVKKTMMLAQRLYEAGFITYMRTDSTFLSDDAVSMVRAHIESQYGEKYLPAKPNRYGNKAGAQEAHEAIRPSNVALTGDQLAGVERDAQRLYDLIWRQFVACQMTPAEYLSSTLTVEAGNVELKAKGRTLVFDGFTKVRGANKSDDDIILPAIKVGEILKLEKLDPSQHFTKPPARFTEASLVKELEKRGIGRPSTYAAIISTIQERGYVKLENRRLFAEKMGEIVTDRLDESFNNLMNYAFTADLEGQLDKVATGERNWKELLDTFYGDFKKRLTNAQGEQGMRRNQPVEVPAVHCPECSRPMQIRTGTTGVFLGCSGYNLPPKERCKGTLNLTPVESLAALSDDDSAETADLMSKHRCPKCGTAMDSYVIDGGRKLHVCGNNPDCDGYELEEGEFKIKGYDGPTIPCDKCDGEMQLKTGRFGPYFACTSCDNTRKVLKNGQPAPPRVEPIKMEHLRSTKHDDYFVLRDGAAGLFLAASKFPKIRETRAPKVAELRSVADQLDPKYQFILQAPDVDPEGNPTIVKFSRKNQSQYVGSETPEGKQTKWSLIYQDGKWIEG
# [3] = target: T3, E. coli topoisomerase III (EcTopoIII) (Escherichia coli, UniProt P14294); experiment: as above
# T3 construct: gene topB; N-terminal His-tag, pET28a(+), 1962 bp, 73 kDa
# [4] = target: T4, S. aureus topoisomerase IA (SaTopoIA) (Staphylococcus aureus, UniProt Q5HGI2); experiment: DNA relaxation assay with pHOT-1 plasmid; also ssDNA religation and plasmid cleavage assays
# T4 construct: gene topA; N-terminal His-tag, pET28a(+), 2070 bp, 79 kDa
# T4 sequence (Q5HGI2 1-689): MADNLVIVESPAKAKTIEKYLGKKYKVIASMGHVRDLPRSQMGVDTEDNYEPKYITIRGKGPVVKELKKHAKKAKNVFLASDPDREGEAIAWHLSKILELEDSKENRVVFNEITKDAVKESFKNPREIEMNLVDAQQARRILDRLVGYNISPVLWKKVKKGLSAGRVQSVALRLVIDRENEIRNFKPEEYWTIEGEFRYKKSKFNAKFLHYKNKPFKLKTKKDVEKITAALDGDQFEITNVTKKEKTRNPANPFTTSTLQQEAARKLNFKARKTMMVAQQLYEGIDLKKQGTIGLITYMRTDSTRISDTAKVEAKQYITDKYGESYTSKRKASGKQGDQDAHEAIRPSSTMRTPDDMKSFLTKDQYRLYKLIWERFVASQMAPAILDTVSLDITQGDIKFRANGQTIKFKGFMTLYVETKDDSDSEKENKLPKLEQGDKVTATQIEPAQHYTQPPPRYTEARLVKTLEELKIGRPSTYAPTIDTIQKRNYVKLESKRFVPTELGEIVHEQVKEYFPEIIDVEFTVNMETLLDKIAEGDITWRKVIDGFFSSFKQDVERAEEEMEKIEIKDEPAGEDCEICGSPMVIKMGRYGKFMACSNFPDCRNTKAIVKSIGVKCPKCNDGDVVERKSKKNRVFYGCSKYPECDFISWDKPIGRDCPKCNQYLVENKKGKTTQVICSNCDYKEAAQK
# T3 sequence (P14294 whole entry): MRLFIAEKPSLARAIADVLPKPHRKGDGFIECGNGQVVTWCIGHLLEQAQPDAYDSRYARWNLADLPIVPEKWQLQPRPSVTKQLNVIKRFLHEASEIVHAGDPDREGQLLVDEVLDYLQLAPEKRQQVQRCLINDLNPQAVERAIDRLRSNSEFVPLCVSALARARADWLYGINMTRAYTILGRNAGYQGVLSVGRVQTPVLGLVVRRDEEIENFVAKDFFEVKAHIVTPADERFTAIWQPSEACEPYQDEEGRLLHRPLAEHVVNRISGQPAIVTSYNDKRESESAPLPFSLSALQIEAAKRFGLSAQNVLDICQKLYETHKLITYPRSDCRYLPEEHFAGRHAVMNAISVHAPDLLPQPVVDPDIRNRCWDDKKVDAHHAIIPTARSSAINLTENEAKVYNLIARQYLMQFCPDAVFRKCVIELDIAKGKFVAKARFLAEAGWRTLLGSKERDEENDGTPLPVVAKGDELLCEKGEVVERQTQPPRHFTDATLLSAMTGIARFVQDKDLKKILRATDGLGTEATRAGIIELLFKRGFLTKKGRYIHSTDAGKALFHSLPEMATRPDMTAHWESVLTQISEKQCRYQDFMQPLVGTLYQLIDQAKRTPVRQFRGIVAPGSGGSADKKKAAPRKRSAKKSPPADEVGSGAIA
# T1 sequence (P06612 whole entry): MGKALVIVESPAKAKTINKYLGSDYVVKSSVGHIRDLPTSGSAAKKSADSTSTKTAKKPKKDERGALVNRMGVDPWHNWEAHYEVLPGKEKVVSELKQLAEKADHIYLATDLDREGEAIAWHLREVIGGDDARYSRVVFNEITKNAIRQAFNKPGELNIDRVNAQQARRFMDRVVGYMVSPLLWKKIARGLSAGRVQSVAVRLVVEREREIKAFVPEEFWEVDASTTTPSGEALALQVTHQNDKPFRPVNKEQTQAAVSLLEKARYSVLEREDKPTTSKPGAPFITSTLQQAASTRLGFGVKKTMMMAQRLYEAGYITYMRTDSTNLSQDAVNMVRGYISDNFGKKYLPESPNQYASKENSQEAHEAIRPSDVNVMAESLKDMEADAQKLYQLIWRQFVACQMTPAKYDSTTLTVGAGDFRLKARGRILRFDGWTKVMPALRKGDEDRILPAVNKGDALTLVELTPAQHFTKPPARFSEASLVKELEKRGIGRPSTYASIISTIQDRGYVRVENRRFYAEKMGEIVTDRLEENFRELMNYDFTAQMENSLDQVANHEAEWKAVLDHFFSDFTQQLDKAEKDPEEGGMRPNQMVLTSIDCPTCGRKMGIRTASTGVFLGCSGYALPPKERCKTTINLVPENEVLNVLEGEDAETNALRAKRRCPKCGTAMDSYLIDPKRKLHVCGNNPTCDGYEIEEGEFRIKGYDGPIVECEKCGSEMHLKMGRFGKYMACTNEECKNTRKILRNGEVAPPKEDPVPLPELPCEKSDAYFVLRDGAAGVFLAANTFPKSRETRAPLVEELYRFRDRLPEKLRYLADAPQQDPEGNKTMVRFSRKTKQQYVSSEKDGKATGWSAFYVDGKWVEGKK
Structure (SMILES),IC50 [1] [µM],IC50 [2] [µM],IC50 [3] [µM],IC50 [4] [µM]
"CCCN1CCN(c2ccc3nc(-c4ccc5nc(-c6ccc(OCC)cc6)[nH]c5c4)[nH]c3c2)CC1 [PPEF, 2′-(4-ethoxyphenyl)-5-(4-propylpiperazin-1-yl)-1H,1′H-2,5′-bibenzo(d)imidazole]",2.71,9.48,1.58,15.5
"CCCCN1CCN(c2ccc3[nH]c(-c4ccc5[nH]c(-c6ccc(OC)c(OC)c6)nc5c4)nc3c2)CC1 [BPVF, 5-(4-butylpiperazin-1-yl)-2′-(3,4-dimethoxyphenyl)-1H,1′H-2,5′ bibenzo[d]imidazole]",–,–,1.96,41.4
